Results reported in PubChem BioAssay (NCI).
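Test compounds were applied to cells in 96-well plates for 48 hours at 5 doses. GI50 = concentration required for 50% inhibition of growth. TGI marks complete inhibition of growth.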

Columns and labels:
Experiment in all cases: DTP human tumour cell line panel, 48 h
[1] = test system: MDA-MB-468 breast
[2] = test system: HS 578T breast
[3] = test system: UACC-62 melanoma
[4] = test system: ACHN renal
[5] = test system: BT-549 breast
[6] = test system: M14 melanoma
[7] = test system: RPMI-8226 leukemia
[8] = test system: OVCAR-4 ovarian
[9] = test system: 786-0 renal
[10] = test system: T-47D breast
[11] = test system: NCI/ADR-RES ovarian
[12] = test system: A549 NSCLC
[13] = test system: CAKI-1 renal
[14] = test system: HL-60(TB) leukemia
[15] = test system: NCI-H226 lung
[16] = test system: OVCAR-5 ovarian
[17] = test system: SK-MEL-28 melanoma
[18] = test system: MDA-MB-435
[19] = test system: SF-295 CNS
[20] = test system: K-562 leukemia
[21] = test system: TK-10 renal
[22] = test system: COLO 205 colon
[23] = test system: LOX IMVI melanoma
[24] = test system: HOP-62 NSCLC
[25] = test system: A498 renal
[26] = test system: MALME-3M melanoma
[27] = test system: MCF7 breast
[28] = test system: SN12C renal
[29] = test system: PC-3 prostate
[30] = test system: RXF 393 renal
[31] = test system: NCI-H522 lung
[32] = test system: SW-620 colon
[33] = test system: KM12 colon
[34] = test system: IGROV1 ovarian
[35] = test system: SNB-19 CNS
[36] = test system: HOP-92 NSCLC
[37] = test system: NCI-H23 lung
[38] = test system: SF-539 CNS
[39] = test system: UACC-257 melanoma
[40] = test system: SF-268 CNS
[41] = test system: CCRF-CEM leukemia
[42] = test system: MOLT-4 leukemia
[43] = test system: DU-145 prostate
[44] = test system: EKVX NSCLC
[45] = test system: SR leukemia
[46] = test system: OVCAR-8 ovarian
[47] = test system: HT29 colon
[48] = test system: HCT-15 colon
[49] = test system: OVCAR-3 ovarian
[50] = test system: HCT-116 colon

`CCOC(=O)Sc1ncnc2nc[nH]c12` was tested, and the GI50 [1] was 350 nM and the TGI [1] was > 100000 nM.
`CC/C=C\C[C@@H]1C/C=C2/C(=O)C=C[C@H]2C/C=C\CCCC(=O)O1` showed a GI50 [1] of 976 nM and a TGI [1] of 2580 nM.
`COc1ccc(OC)c(/C=C/C(=O)N/N=C/c2ccc(Cl)cc2)c1` gave a GI50 [1] of 76.8 nM and a TGI [1] of 363 nM.
For `O=C(c1cccc(O)c1O)c1cn(Cc2ccc(F)cc2)c2cccc(O)c12`, the GI50 [1] was 5460 nM and the TGI [1] was 21700 nM.
With `COc1cc(C2=NN(C(C)=O)C(c3ccc(OC(C)=O)cc3OC(C)=O)O2)c(OC(C)=O)c2ccccc12` (stereo unspecified) the GI50 [1] was 1060 nM and the TGI [1] was 6580 nM.
`O=C(CCl)Nc1ccc(Cl)cc1` showed a GI50 [1] of 2340 nM and a TGI [1] of 6280 nM.
`COc1ccc(C(=O)COc2cccc(/C=C3\COc4ccc5ccccc5c4C3=O)c2)cc1` gave a GI50 [1] of 2360 nM and a TGI [1] of 12300 nM.
For `CCN1C(=O)CNc2ncc(-c3ccc(-c4ncn[nH]4)nc3C)nc21`, the GI50 [1] was 196 nM and the TGI [1] was 1170 nM.
`CN(C)c1ccc(N)cc1` showed a GI50 [1] of 2810 nM and a TGI [1] of 8700 nM.
`COc1cc(NC(=O)c2cc(O)c(CC=C(C)C)c(O)c2)cc2c1O[C@]1(C)CC[C@@H](O)C(C)(C)[C@H]1C2` gave a GI50 [1] of 3420 nM and a TGI [1] of 19800 nM.
In the case of `O=C(Nc1ccc(Cl)cc1)c1cc(-c2ccc(F)cc2)c2sc(=O)[nH]c2n1`, the GI50 [1] is reported as 687 nM and the TGI [1] is reported as 4970 nM.
In the case of `COc1ccc(C(=O)c2cc(C)c(OC)c(C)c2)c(OC)c1N(C(=O)C(Cl)Cl)C(=O)C(Cl)Cl`, the GI50 [1] is reported as 25.9 nM and the TGI [1] is reported as 92.6 nM.
Compound `CCCCN=C(N)c1ccc(OCCSCCOc2ccc(C(N)=NCCCC)cc2)cc1` has a GI50 [1] of 360 nM and a TGI [1] of 3870 nM.
`Cc1ccc(C(=NN=C(N)N)c2ccc(C)cc2)cc1` was tested, and the GI50 [1] was 232 nM and the TGI [1] was 750 nM.
`CCS(=O)(=O)c1ccc(OC)c(Nc2ncc(-c3cccc(C(C)=O)c3)o2)c1` was tested, and the GI50 [1] was 3460 nM and the TGI [1] was > 25000 nM.
Work on `COc1cc(OC)c(/C=C/C(=O)c2c(OC)cccc2OC)c(OC)c1` yielded a GI50 [1] of 394 nM and a TGI [1] of 3160 nM.
`COc1cc2cc(C(=O)N3C[C@@H](CCl)c4c3cc(OC(=O)N3CCN(C)[C@@H]5CSSC[C@@H]53)c3ccccc43)[nH]c2c(OC)c1OC` gave a GI50 [2] of 2260 nM, a TGI [2] of 7040 nM and a GI50 [3] of 147 nM. For the same compound, the TGI [3] was 665 nM, the GI50 [4] was 28.2 nM and the TGI [4] was 222 nM. For the same compound, the GI50 [5] was 165 nM, the TGI [5] was 593 nM and the GI50 [6] was 251 nM. The TGI [6] was 1060 nM, the GI50 [7] was 161 nM and the TGI [7] was 569 nM. The GI50 [8] was 1620 nM, the TGI [8] was > 100000 nM and the GI50 [9] was 197 nM. The TGI [9] was 579 nM, the GI50 [10] was 287 nM and the TGI [10] was > 100000 nM. The GI50 [11] was 148 nM, the TGI [11] was 613 nM and the GI50 [12] was 180 nM. For the same compound, the TGI [12] was > 100000 nM, the GI50 [13] was 248 nM and the TGI [13] was > 100000 nM. For the same compound, the GI50 [14] was 52 nM, the TGI [14] was 640 nM and the GI50 [15] was 1020 nM. For the same compound, the TGI [15] was 7850 nM, the GI50 [16] was 284 nM and the TGI [16] was 1400 nM. It also gave a GI50 [17] of 261 nM, a TGI [17] of 762 nM and a GI50 [1] of 164 nM. It also gave a TGI [1] of 392 nM, a GI50 [18] of 836 nM and a TGI [18] of 2930 nM. The GI50 [19] was 133 nM, the TGI [19] was 474 nM and the GI50 [20] was 397 nM. The TGI [20] was > 100000 nM, the GI50 [21] was 1290 nM and the TGI [21] was > 100000 nM. The GI50 [22] was 328 nM, the TGI [22] was 1640 nM and the GI50 [23] was 165 nM. For the same compound, the TGI [23] was 829 nM, the GI50 [24] was 205 nM and the TGI [24] was 925 nM. For the same compound, the GI50 [25] was 1230 nM, the TGI [25] was 3880 nM and the GI50 [26] was 213 nM. The TGI [26] was 719 nM, the GI50 [27] was 28.1 nM and the TGI [27] was 12900 nM. It also gave a GI50 [28] of 203 nM, a TGI [28] of 31700 nM and a GI50 [29] of 358 nM. It also gave a TGI [29] of 13700 nM, a GI50 [30] of 132 nM and a TGI [30] of 273 nM. It also gave a GI50 [31] of 146 nM, a TGI [31] of 531 nM and a GI50 [32] of 264 nM. The TGI [32] was > 100000 nM, the GI50 [33] was 1100 nM and the TGI [33] was 26700 nM. The GI50 [34] was 1530 nM, the TGI [34] was > 100000 nM and the GI50 [35] was 224 nM. The TGI [35] was 6410 nM, the GI50 [36] was 238 nM and the TGI [36] was 809 nM. The GI50 [37] was 45.4 nM, the TGI [37] was 186 nM and the GI50 [38] was 172 nM. For the same compound, the TGI [38] was 477 nM, the GI50 [39] was 501 nM and the TGI [39] was 2990 nM. The GI50 [40] was 175 nM, the TGI [40] was 12200 nM and the GI50 [41] was 105 nM. For the same compound, the TGI [41] was 1390 nM, the GI50 [42] was 69.7 nM and the TGI [42] was 1780 nM. The GI50 [43] was 62.6 nM, the TGI [43] was > 100000 nM and the GI50 [44] was 230 nM. The TGI [44] was 1810 nM, the GI50 [45] was 37.3 nM and the TGI [45] was 299 nM. It also gave a GI50 [46] of 151 nM, a TGI [46] of 2210 nM and a GI50 [47] of 226 nM. For the same compound, the TGI [47] was 37300 nM, the GI50 [48] was 247 nM and the TGI [48] was 11700 nM. For the same compound, the GI50 [49] was 489 nM, the TGI [49] was 5540 nM and the GI50 [50] was 187 nM. The TGI [50] was > 100000 nM.
`CC1CN1CC(O)C(O)CN1CC1C` (stereo unspecified) was tested, and the GI50 [1] was 278 nM and the TGI [1] was 1680 nM.
With `COc1cc[nH]c1/C=C1\C(=O)Nc2ccccc21` the GI50 [1] was 1110 nM and the TGI [1] was > 25000 nM.
For `CCS(=O)(=O)c1ccc(OC)c(Nc2ncc(-c3cccc(OC)c3)o2)c1`, the GI50 [1] was 10500 nM and the TGI [1] was > 25000 nM.
Work on `Cc1cc(C)c(C(=O)CC(=O)c2cccnc2)c(C)c1` yielded a GI50 [1] of 8680 nM and a TGI [1] of 49800 nM.
For `COC(=O)Nc1nc2ccc(Oc3ccc(NC(=O)Nc4ccccc4)cc3)cc2[nH]1`, the GI50 [1] was 56.1 nM and the TGI [1] was 489 nM.
`CCN(CC)c1ccc(C(=N)c2ccc(N(CC)CC)cc2)cc1` was tested, and the GI50 [1] was 312 nM and the TGI [1] was 1430 nM.
Compound `O=C(N/N=C/c1cccc(O)c1O)c1ccccc1` has a GI50 [1] of 1290 nM and a TGI [1] of 11100 nM.
With `CCOC(=O)c1cc(/C(=N\O)c2cc(OC)c(OC)c(OC)c2)n2cc(C)cc(C)c12` the GI50 [1] was 1460 nM and the TGI [1] was 4790 nM.
`CC(C)c1ccc(C(=O)Nc2sc3c(c2C(N)=O)CCC(=O)C3)cc1` gave a GI50 [1] of 453 nM and a TGI [1] of 1810 nM.
`NC(=S)N/N=C/c1ccc(OC(=O)COc2ccc(Cl)cc2)cn1` showed a GI50 [1] of 2540 nM and a TGI [1] of 9590 nM.
Work on `Nc1ncc(-c2cnn(CCO)c2)c2scc(-c3ccc(NC(=O)Nc4cccc(F)c4)cc3)c12` yielded a GI50 [1] of 443 nM and a TGI [1] of 5660 nM.
`CCC#CC[C@H]1C/C=C2/C(=O)C=C[C@@H]2C/C=C\CCCC(=O)O1` was tested, and the GI50 [1] was 928 nM and the TGI [1] was 5470 nM.
